According to paper PMC6101487 (2018):

What was measured:
Experiment in all cases: fluorescence scan of RNA array
Settings in all cases: 6 mM MgCl2, 20 mM NaCl; 40 mM Tris pH 7.8, 20 °C, 16 h; 20 μM malachite green
[1] = test system: MGsa (malachite green aptamer–streptavidin aptamer conjugate) (RNA, aptamer) GGAUCCCGACUGGCGAGAGCCAGGUAACGAAUGGAUCCACACACACACACACACACACGCAUGCAUACCGACCAGAAUCAUGCAAGUGCGUAAGAUAGUCGCGGGCCGGGAUGCAUGC
[2] = test system: MicAsa (RNA, other) GGGGAAAGACGCGCAUUUGUUAUCAUCAUCCCUGAAUUCAGAGAUGAAAUUUUGGCCACUCACGAGUGGCCUUUUACACACACACACACACACACGCAUGCAUACCGACCAGAAUCAUGCAAGUGCGUAAGAUAGUCGCGGGCCGGGAUGCAUGC
[3] = test system: DsrAsa (RNA, other) GGGAACACAUCAGAUUUCCUGGUGUAACGAAUUUUUUAAGUGCUUCUUGCUUAAGCAAGUUUCAUCCCGACCCCCUCAGGGUCGGGAUUUUUUUUUUUUUUUUUUUUUUAGAGACCGACCAGAAUCAUGCAAGUGCGUAAGAUAGUCGCGGGCCGGGCUCUA
[4] = test system: RprAsa (RNA, other) GGGACGGUUAUAAAUCAACAUAUUGAUUUAUAAGCAUGGAAAUCCCCUGAGUGAAACAACGAAUUGCUGUGUGUAGUCUUUGCCCAUCUCCCACGAUGGGCUUUUUUUUUUUUUUUUUUUUUUUUUUGUGUGACCGACCAGAAUCAUGCAAGUGCGUAAGAUAGUCGCGGGCCGGGCACAC
[5] = test system: ompAsa (RNA, mRNA element) GGGCCAGGGGUGCUCGGCAUAAGCCGAAGAUAUCGGUAGAGUUAAUAUUGAGCAGAUCCCCCGGUGAAGGAUUUAACCGUGUUAUCUCGUUGGAGAUAUUCAUGGCGUAUUUUGGAUGAUAACGAGGCGCAAAAAAUGAAAAAGACAGCUAUCGCGAUUGCAGUGGCAAAUAAUAAUAAUAAUAAUAAUAUGCAUGCACCGACCAGAAUCAUGCAAGUGCGUAAGAUAGUCGCGGGCCGGGGCAUGCAU
[6] = test system: rpoSsa (RNA, mRNA element) GGGUUCUGAGUCUUCGGGUGAACAGAGUGCUAACAAAAUGUUGCCGAACAACAAGCCAACUGCGACCACGGUCACAGCGCCUGUAACGGUACCAACAGCAAGCACAACCGAGCCGACUGUCAGCAGUACAUCAACCAGUACGCCUAUCUCCACCUGGACCUGGCCGACUGAGGGCAAAGUGAUCGAAACCUUUGGCGCUUCUGAGGGGGGCAACAAGGGGAUUGAUAUCGCAGGCAGCAAAGGACAGGCAAUUAUCGCGACCGCAGAUGGCCGCGUUGUUUAUGCUGGUAACGCGCUGCGCGGCUACGGUAAUCUGAUUAUCAUCAAACAUAAUGAUGAUUACCUGAGUGCCUACGCCCAUAACGACACAAUGCUGGUCCGGGAACAACAAGAAGUUAAGGCGGGGCAAAAAAUAGCGACCAUGGGUAGCACCGGAACCAGUUCAACACGCUUGCAUUUUGAAAUUCGUUACAAGGGGAAAUCCGUAAACCCGCUGCGUUAUUUGCCGCAGCGAUAAAUCGGCGGAACCAGGCUUUUGCUUGAAUGUUCCGUCAAGGGAUCACGGGUAGGAGCCACCUUAUGAGUCAGAUUUUUUUUUUUUUUUUUUAUGCAUGCACCGACCAGAAUCAUGCAAGUGCGUAAGAUAGUCGCGGGCCGGGGCAUGCAU

binding [1]: yes | binding [2]: no | binding [3]: no | binding [4]: no | binding [5]: no | binding [6]: no
SMILES: CN(C)c1ccc(C(=C2C=CC(=[N+](C)C)C=C2)c2ccccc2)cc1
